From patent US12590083B2, “Inhibitors of spinster homolog 2 (SPNS2) for use in therapy” (University of Virginia Patent Foundation, priority 2019, dated 2026)
Structures can show the parent of a compound that is named as a salt.

Biological target: T1, human SPNS2 (Homo sapiens, UniProt Q8IVW8)
T1 construct: expressed in transfected cells; host or cells: Saccharomyces cerevisiae strain with forced expression of a mammalian SphK and human SPNS2
T1 sequence (Q8IVW8 1-549): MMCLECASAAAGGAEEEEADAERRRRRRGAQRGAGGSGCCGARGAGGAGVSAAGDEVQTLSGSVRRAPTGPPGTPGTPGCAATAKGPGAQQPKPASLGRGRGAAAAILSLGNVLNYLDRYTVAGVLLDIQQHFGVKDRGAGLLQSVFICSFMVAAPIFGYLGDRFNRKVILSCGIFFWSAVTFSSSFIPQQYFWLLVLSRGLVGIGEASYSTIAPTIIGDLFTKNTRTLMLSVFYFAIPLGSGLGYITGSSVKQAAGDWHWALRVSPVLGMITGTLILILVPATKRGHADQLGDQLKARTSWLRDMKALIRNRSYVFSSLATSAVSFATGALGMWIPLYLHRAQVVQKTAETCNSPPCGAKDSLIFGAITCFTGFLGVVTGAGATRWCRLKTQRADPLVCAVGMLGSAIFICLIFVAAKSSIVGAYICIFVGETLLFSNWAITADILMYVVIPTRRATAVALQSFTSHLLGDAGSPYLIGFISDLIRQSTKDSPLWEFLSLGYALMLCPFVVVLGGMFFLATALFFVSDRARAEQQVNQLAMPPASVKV
Assay: S1P transporter assay: growth of S. cerevisiae strain with forced expression of a mammalian SphK and human SPNS2
Assay type: cell-based
Conditions: in vitro inhibition of SPNS2; growth of S. cerevisiae strain expressing mammalian SphK and human SPNS2; compounds as their pharmaceutical salts
Description: Transporter assays are vectorial and, therefore, require measurement of the transported analyte in different compartments. The assay of S1P transporters is problematic because S1P is exported, but not imported, by SPNS2, which obviates measuring uptake of mass- or radio-labeled S1P into transporter-expressing cells.
To assay for SPNS2 inhibitor hits, we took advantage of the growth inhibitory effects of excessive levels of phosphorylated Long Chain Base (phospho-LCB) levels on the budding yeast, S. cerevisiae (Kharel Y, et al. Saccharomyces cerevisiae as a platform for assessing sphingolipid lipid kinase inhibitors. PLoS One 13, e0192179 (2018) PMC5908134). Yeast lack the desaturase that converts dihydroceramide to ceramide and, therefore, have neither sphingosine nor S1P. Rather, yeast have the reduced form, dihydrosphingosine, and the 4-hydroxyl analog, phytosphingosine and their respective phosphates. Like all eukaryotes, the yeast synthesizes (via LCB kinases (SphKs)) and degrades (via phospho-LCB lyase and phosphatase) phospho-LCBs, (dhS1P, phytoS1P). Yeast lack phospho-LCB transporters such as SPNS2, which are found only in vertebrates. To assess inhibition of SPNS2 in vitro, we used a strain of S. cerevisiae wherein expression of a mammalian SphK and human SPNS2 were forced. SPNS2 inhibitors decrease the growth of this strain. Table 2 below presents in vitro inhibition data against SPNS2 for exemplary compounds, presented here as their pharmaceutical salts, of the disclosure (A≤2 μM, B>2 μM).

Row | Structure (SMILES) | IC50
1 | CCCCCO/N=C(\C)c1ccc(-c2noc([C@@H]3CCNC3)n2)cc1 [Compound 38l, (R)-1-(4-(5-(pyrrolidin-3-yl)-1,2,4-oxadiazol-3-yl)phenyl)ethan-1-one O-pentyl oxime hydrochloride] | > 2000 nM
2 | CCCCCCCCCCc1ccc(-c2noc([C@@H]3CCN(C(=N)N)C3)n2)cc1 [Compound 7g, (R)-amino(3-(3-(4-decylphenyl)-1,2,4-oxadiazol-5-yl)pyrrolidin-1-yl)methaniminium chloride] | > 2000 nM
3 | CCCCc1ccc(Nc2ccc(-c3noc([C@@H]4CCNC4)n3)cn2)cc1 [Compound 13i, (R)—N-(4-butylphenyl)-5-(5-(pyrrolidin-3-yl)-1,2,4-oxadiazol-3-yl)pyridin-2-amine hydrochloride] | > 2000 nM
4 | CCCCCCCCCCc1ccc(-c2noc([C@@H]3CCCN(C(=N)N)C3)n2)cc1 [Compound 7h, (R)-amino(3-(3-(4-decylphenyl)-1,2,4-oxadiazol-5-yl)piperidin-1-yl)methaniminium chloride] | > 2000 nM
5 | CCCCCCCCCCc1cccc(-c2noc([C@@H]3CCN(C(=N)N)C3)n2)c1 [Compound 7t, (R)-3-(3-(3-decylphenyl)-1,2,4-oxadiazol-5-yl)pyrrolidine-1-carboximidamide hydrochloride] | > 2000 nM
6 | N=C(N)N1CC[C@@H](c2nc(-c3ccc(N4CCOCC4)nc3)no2)C1 [Compound 15d, (R)-3-(3-(6-morpholinopyridin-3-yl)-1,2,4-oxadiazol-5-yl)pyrrolidine-1-carboximidamide hydrochloride] | > 2000 nM
7 | CCCCCCCCCCc1ccc(Nc2ccc(-c3noc([C@@H]4CCNC4)n3)cn2)cc1 [Compound 13h, (R)—N-(4-decylphenyl)-5-(5-(pyrrolidin-3-yl)-1,2,4-oxadiazol-3-yl)pyridin-2-amine hydrochloride] | > 2000 nM
8 | CCCCCCCCCCCc1ccc(-c2noc(C3CN(C(=N)N)C3)n2)cc1 [Compound 7a, 3-(3-(4-undecylphenyl)-1,2,4-oxadiazol-5-yl)azetidine-1-carboximidamide hydrochloride] | > 2000 nM
9 | CCCCCCCCCCCc1ccc(-c2noc([C@@H]3CCCN(C(=N)N)C3)n2)cc1C(F)(F)F [Compound 30f, (R)-3-(3-(3-(trifluoromethyl)-4-undecylphenyl)-1,2,4-oxadiazol-5-yl)piperidine-1-carboximidamide hydrochloride] | > 2000 nM
10 | C/C(=N\OCc1ccccc1)c1ccc(-c2noc([C@@H]3CCN(C(=N)N)C3)n2)cc1 [Compound 40g, (R)-3-(3-(4-(1-((benzyloxy)imino)ethyl)phenyl)-1,2,4-oxadiazol-5-yl)pyrrolidine-1-carboximidamide hydrochloride] | > 2000 nM
11 | Brc1ccc(Br)c(Nc2ccc(-c3noc([C@@H]4CCNC4)n3)cn2)c1 [Compound 13f, (R)—N-(2,5-dibromophenyl)-5-(5-(pyrrolidin-3-yl)-1,2,4-oxadiazol-3-yl)pyridin-2-amine hydrochloride] | > 2000 nM
12 | CCCCCCCCNc1ccc(-c2noc([C@@H]3CCNC3)n2)cn1 [Compound 13b, (R)—N-octyl-5-(5-(pyrrolidin-3-yl)-1,2,4-oxadiazol-3-yl)pyridin-2-amine hydrochloride] | > 2000 nM
13 | CCCCCCCCCCc1ccc(-c2noc([C@H]3CCNC3)n2)cc1 [Compound 5e, (S)-3-(3-(4-decylphenyl)-1,2,4-oxadiazol-5-yl)pyrrolidin-1-ium 2,2,2-trifluoroacetate] | > 2000 nM
14 | C/C(=N\OC(C)c1ccccc1)c1ccc(-c2noc([C@@H]3CCN(C(=N)N)C3)n2)cc1 (some centres unmarked) [Compound 40f, hydrochloride] | > 2000 nM

Further lines, results first:

Row | IC50 | Structure (SMILES)
15 | > 2000 nM | N=C(N)N1CC[C@@H](c2nc(-c3ccc(N4CCCCC4)nc3)no2)C1 [Compound 15a, (R)-3-(3-(6-(piperidin-1-yl)pyridin-3-yl)-1,2,4-oxadiazol-5-yl)pyrrolidine-1-carboximidamide hydrochloride]
16 | > 2000 nM | C/C(=N\OCc1ccc(Br)cc1)c1ccc(-c2noc([C@@H]3CCN(C(=N)N)C3)n2)cc1 [Compound 40n, (R)-3-(3-(4-(1-(((4-bromobenzyl)oxy)imino)ethyl)phenyl)-1,2,4-oxadiazol-5-yl)pyrrolidine-1-carboximidamide hydrochloride]
17 | ≤ 2000 nM | C/C(=N\OCc1cccc(-c2ccccc2)c1)c1ccc(-c2noc([C@@H]3CCN(C(=N)N)C3)n2)cc1 [Compound 40e, (R)-3-(3-(4-(1-(([1,1′-biphenyl]-3-ylmethoxy)imino)ethyl)phenyl)-1,2,4-oxadiazol-5-yl)pyrrolidine-1-carboximidamide hydrochloride]
18 | ≤ 2000 nM | C/C(=N\OCc1ccc(Br)cc1)c1ccc(-c2noc([C@@H]3CCNC3)n2)cc1 [Compound 38n, (R)-1-(4-(5-(pyrrolidin-3-yl)-1,2,4-oxadiazol-3-yl)phenyl)ethan-1-one O-(4-bromobenzyl) oxime hydrochloride]
19 | ≤ 2000 nM | CCCCCCCCCCc1ccc(-c2noc(C[C@@H]3CCN(C(=N)N)C3)n2)cc1 [Compound 7p, (S)-3-((3-(4-decylphenyl)-1,2,4-oxadiazol-5-yl)methyl)pyrrolidine-1-carboximidamide 2,2,2-trifluoroacetate]
20 | ≤ 2000 nM | CCCCCCCOc1ccc(-c2noc([C@@H]3CCCN(C(=N)N)C3)n2)cc1C(F)(F)F [Compound 23c, (R)-3-(3-(4-(heptyloxy)-3-(trifluoromethyl)phenyl)-1,2,4-oxadiazol-5-yl)piperidine-1-carboximidamide hydrochloride]
21 | ≤ 2000 nM | CCCCCCCOc1ccc2cc(-c3noc([C@@H]4CCN(C(=N)N)C4)n3)ccc2c1 [Compound 7kk, (R)-3-(3-(6-(heptyloxy)naphthalen-2-yl)-1,2,4-oxadiazol-5-yl)pyrrolidine-1-carboximidamide hydrochloride]
22 | ≤ 2000 nM | CCCCCCCCCCc1ccc(-c2noc([C@@H]3CCCN(C(=N)N)C3)n2)cc1C(F)(F)F [Compound 30e, (R)-3-(3-(4-decyl-3-(trifluoromethyl)phenyl)-1,2,4-oxadiazol-5-yl)piperidine-1-carboximidamide hydrochloride]
23 | ≤ 2000 nM | CCCCCCCO/N=C(\C)c1ccc(-c2noc([C@@H]3CCN(C(=N)N)C3)n2)cc1 [Compound 40i, (R)-3-(3-(4-(1-((heptyloxy)imino)ethyl)phenyl)-1,2,4-oxadiazol-5-yl)pyrrolidine-1-carboximidamide hydrochloride]
24 | ≤ 2000 nM | C/C(=N\OCc1ccc(C(C)(C)C)cc1)c1ccc(-c2noc([C@@H]3CCN(C(=N)N)C3)n2)cc1 [Compound 40k, (R)-3-(3-(4-(1-(((4-(tert-butyl)benzyl)oxy)imino)ethyl)phenyl)-1,2,4-oxadiazol-5-yl)pyrrolidine-1-carboximidamide hydrochloride]
25 | ≤ 2000 nM | CCCCCCCCCCc1ccc(-c2noc(C3CN(C(=N)N)C3)n2)cc1 [Compound 7b, 3-(3-(4-decylphenyl)-1,2,4-oxadiazol-5-yl)azetidine-1-carboximidamide hydrochloride]
26 | ≤ 2000 nM | C/C(=N\OCCCCc1ccccc1)c1ccc(-c2noc([C@@H]3CCNC3)n2)cc1 [Compound 38a, (R)-1-(4-(5-(pyrrolidin-3-yl)-1,2,4-oxadiazol-3-yl)phenyl)ethan-1-one O-(4-phenylbutyl) oxime hydrochloride]
